The target in series [1] is human GnRHr (Homo sapiens (Human), UniProt P30968). Description: Human GnRHr (GnRH receptor) activity assay, Fluo-4 calcium signal in Human GnRHr/CHO stably transfected cell lines. The note with it: Human GnRHr/CHO cells, GnRH polypeptide stimulant. It is filed as cell-based. The protocol:
Test Example 1. Human GnRHr (GnRH Receptor) Activity Assay of the Present Compounds.
In vitro GnRHr protein activity was tested by the following methods.
This assay was used to determine the inhibition effect of the present compound on the activity of human GnRHr protein expressed by Human GnRHr/CHO stably transfected cell lines.
A mammalian expression vector containing the human GnRHr gene was transferred into CHO cells by adding Lipofectamine® LTX reagent containing Plus™. Antibiotics were added the next day for screening to pick out the monoclonal cell lines.
(§1) The Human GnRHr/CHO stably transfected cell lines were inoculated in 96-well plates with an inoculation density of 25,000 cells/well. The culture medium was removed the next day, and loading buffer containing Fluo-4 dye was added to the plate (100 μL/well) and incubated for 30 minutes at 37° C. The plate was moved to room temperature and equilibrated for 10 minutes. Each compound was diluted with DMSO to seven concentration gradients of 100 μM, 10 μM, 1 μM, 0.1 μM, 0.01 μM, 0.001 μM, 0.0001 μM. Then, 1 μl of each gradient was added to each well and incubated for 10 minutes at room temperature. After automated addition of 50 μL of GnRH polypeptide stimulant solution, the value was immediately detected at 494/516 nM by a microplate reader (flexstation 3). IC50 values of the compounds were calculated by software from different fluorescence signals at various corresponding concentrations.
The inhibitory activity of the present compounds on human GnRHr was determined by the above assay, and IC50 values are shown in Table 1.

Series [2] in a line: Rat pharmacokinetics assay. The settings on record: both sexes, Sprague-Dawley, plasma, oral 10 mg/kg. Type of series: in vivo, Sprague-Dawley (SD) rats. As to the method:
Test Example 4. Rat pharmacokinetics assay of the compounds of Example 2, Example 3, Example 5, Example 9, Example 10, Example 11, and Example 13 of the present invention.
Sprague-Dawley (SD) rats were used as test animals. The plasma concentrations at various times were determined by LC/MS/MS after intragastric administration of compounds of Example 2, Example 3, Example 5, Example 9, Example 10, Example 11, and Example 13, and intravenous administration of the compound of Example 11 to the rats. The pharmacokinetic behavior of the present compounds in rats was studied, and the pharmacokinetic features were evaluated.
Thirty-two (32) healthy adult SD rats (half female and half male) were evenly designated into 8 groups (4 for each group). The animals were purchased from Shanghai Super B&K Laboratory Animal Corp. Ltd (laboratory animal production Certificate No. SCXK (HU)2008-0016).
An appropriate amount of sample was weighed, and added with 0.5% CMC-Na to form a 1 mg/ml suspension upon ultrasonic treatment.
Appropriate amounts of drugs were weighed, and dissolved with 0.5 ml DMSO and 0.5 ml of Tween 80. Saline solution was added to the final volume.
Thirty-two (32) SD rats (half female and half male) were evenly designated into 8 groups (4 for each group), and administered by oral gavage or intravenous injection (i.v.) (oral gavage at a dosage of 10 mg/kg or 30 mg/kg, and i.v. at a dosage of 5.0 mg/kg), respectively, at a volume of 10 ml/kg after fasting overnight.
0.1 ml of blood was sampled before, and 0.5, 1, 2, 4, 6, 8, 11, and 24 hours after administration, collected in a heparinized test tube, and centrifuged at 3500 rpm for 10 minutes to separate the plasma, which was stored at −20° C. The animals were allowed access to feed 2 hours after administration.
The content of the test compound in the plasma of rats after administration of the compound by oral gavage was determined by LC/MS/MS.

Series [3] deals with rabbit GnRHr (Oryctolagus cuniculus, UniProt Q5U7L3). Nature of the series: Rabbit GnRHr inhibitory activity assay, rabbit GnRHr/CHO stably transfected cell lines. Type of series: cell-based. The note with it: rabbit GnRHr/CHO cells, GnRH polypeptide stimulant, Fluo-4. As to the method: Test Example 3. Rabbit GnRHr Inhibitory Activity Assay of the Present Compounds
rabbit GnRHr, sequence (Q5U7L3 1-328): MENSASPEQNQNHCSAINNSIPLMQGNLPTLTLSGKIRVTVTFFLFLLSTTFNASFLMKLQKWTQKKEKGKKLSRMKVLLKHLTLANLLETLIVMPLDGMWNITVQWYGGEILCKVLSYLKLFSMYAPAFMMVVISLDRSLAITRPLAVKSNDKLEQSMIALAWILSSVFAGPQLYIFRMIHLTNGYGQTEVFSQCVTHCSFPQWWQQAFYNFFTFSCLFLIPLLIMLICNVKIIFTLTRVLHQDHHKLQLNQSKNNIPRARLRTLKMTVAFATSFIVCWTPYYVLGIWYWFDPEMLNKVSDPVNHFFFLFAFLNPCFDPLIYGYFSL
This assay was used to determine the inhibition effect of the present compounds on the activity of rabbit GnRHr protein expressed by rabbit GnRHr/CHO stably transfected cell lines.
A mammalian expression vector containing the rabbit GnRHr gene was transferred into CHO cells by adding Lipofectamine® LTX reagent containing Plus™. Antibiotics were added the next day for screening to pick out the monoclonal cell lines.
as §1, with “rabbit” for “Human”, “494/516n M” for “494/516 nM”
The inhibitory activity of the present compounds on rabbit GnRHr was determined by the above assay, and IC50 values are shown in Table 1.

For series [4] the following is noted: cited from earlier work.

human GnRHr, sequence (P30968 whole entry): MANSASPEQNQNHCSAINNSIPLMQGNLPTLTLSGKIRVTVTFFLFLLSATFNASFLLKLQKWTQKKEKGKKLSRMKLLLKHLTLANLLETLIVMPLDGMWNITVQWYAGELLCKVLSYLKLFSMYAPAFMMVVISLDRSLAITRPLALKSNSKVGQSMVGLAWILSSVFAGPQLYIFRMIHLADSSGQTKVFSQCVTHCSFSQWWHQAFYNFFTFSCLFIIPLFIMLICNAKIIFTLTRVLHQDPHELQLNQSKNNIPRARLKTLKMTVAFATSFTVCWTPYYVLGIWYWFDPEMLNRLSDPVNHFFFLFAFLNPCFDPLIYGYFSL

Usually IC50 stands for the point on the concentration scale where inhibition reaches its midpoint. The AUC is concentration integrated over time. The MRT is a mean duration of stay, worked out from the concentration-time curve. As to `CNC(=O)Nc1ccc(-n2nc3c(c2CN(C)C)c(=O)n(-c2ccc(OC)nn2)c(=O)n3Cc2c(F)cccc2F)cc1` [Example 9, 1-(4-(7-(2,6-difluorobenzyl)-3-((dimethylamino)methyl)-5-(6-methoxypyridazin-3-yl)-4,6-dioxo-4,5,6,7-tetrahydro-2H-pyrazolo[3,4-d]pyrimidin-2-yl)phenyl)-3-methylurea], the IC50 in series [1] came out at 0.42 nM; in series [3] it was 0.24 nM. In addition, the Vd/F in series [2] (read-out: Apparent volume of distribution Vz/F) came out at 72 ± 25 L/kg. Moreover, the AUC in series [2] (read-out: Area under curve AUC) amounted to 628 ± 369 ng·h/mL. In addition, the CL/F in series [2] (read-out: Clearance rate CL/F) was 332 ± 159 mL/min/kg. Moreover, the half-life in series [2] (read-out: Half-life T1/2 (converted)) is 2.91 ± 1.64 h. Besides, the Cmax in series [2] (read-out: Plasma concentration Cmax) came out at 146 ± 59 ng/mL. For the same molecule, the MRT in series [2] (read-out: Residence time MRT) is 4.67 ± 2.22 h.

Regarding `COc1cccc(-c2c(C)n(Cc3c(F)cccc3C(F)(F)F)c(=O)n(C[C@H](NCCCC(=O)O)c3ccccc3)c2=O)c1F` [elagolix, Elagolix], the safety and tolerability entry in series [4] (endometriosis phase II trial) is “well verified”. Besides, the serum estrogen level result in series [4] (women with endometriosis, elagolix 150 or 250 mg qd, vs leuprorelin depot and placebo) was “lower than that of the leuprorelin treatment group and placebo group”.

The record behind these values is US10344034B2, “Pyrazolopyrimidone or Pyrrolotriazone derivatives, method of preparing same, and pharmaceutical applications thereof” (Shanghai Hengrui Pharmaceutical Co., Ltd., priority 2013, dated 2019).
